# Patent US20120028917A1, “Use Of N-(4-((3-(2-Amino-4-Pyrimidinyl)-2-Pyridinyl)Oxy)Phenyl)-4-(4-Methyl-2-Thienyl)-1-Phthalazinamine In The Treatment Of Antimitotic Agent Resistant Cancer” (Amgen Inc., priority 2009, published 2012)
# Where “and” joins values, the source holds several entries; their conditions need not be identical. Equal values may be shown once. Marks after values point to notes of the source that are not given here.
# Tests used:
# HCT116 parental = assay: Colony formation assay (FIG. 6-B); format: cell-based, human; details: 48 hours treatment, re-plated drug-free
# Procedure: Cells were grown until the DMSO control wells were confluent. Cells were stained with crystal violet dye (Sigma), washed with distilled water, and imaged using a digital scanner (Hewlett-Packard). Colony formation assay was performed with HCT116 cell lines (parental and AZD1152-resistant). Cells were treated with DMSO, AMG 900, AZD1152, or paclitaxel at the indicated concentrations for 48 hours and re-plated in complete media lacking the inhibitor. After the DMSO-treated cells reached confluence, the cells were stained with crystal violet and imaged (duplicate wells).
# [1] = system: NCI-H460-PTX (MDR) xenograft; assay: Xenograft tumor growth inhibition (Example 7); format: in vivo, mice; details: Lung, oral 15 mg/kg b.i.d. 2 consecutive days per week or 3 mg/kg b.i.d. every day, 3 weeks
# Procedure: (§1) The in-vivo effect of AMG 900 on tumor growth was further evaluated in a panel of human xenografts from five different tumor types (breast, colon, lung, pancreatic, and uterine), including three MDR xenograft models. Mice bearing established tumors were orally administered AMG 900 at 15 mg/kg b.i.d. for 2 consecutive days per week for 3 weeks or at 3 mg/kg b.i.d. every day for 3 weeks. The maximum percentage of tumor growth inhibition (TGI) is reported, in Table 7 below, for each xenograft model. The percentage of TGI was calculated as the difference between the change in vehicle-treated control and AMG 900-treated tumor volumes during the study period.
# [2] = system: MES-SA-Dx5 (MDR) xenograft; assay: Xenograft tumor growth inhibition (Example 7); format: in vivo, mice; details: Uterine, oral 15 mg/kg b.i.d. 2 consecutive days per week or 3 mg/kg b.i.d. every day, 3 weeks
# Procedure: as §1
# MES-SA xenograft = assay: Xenograft tumor growth inhibition (Example 7); format: in vivo, mice; details: Uterine, oral 15 mg/kg b.i.d. 2 consecutive days per week or 3 mg/kg b.i.d. every day, 3 weeks
# Procedure: as §1
# COLO 205 xenograft = assay: Xenograft tumor growth inhibition (Example 7); format: in vivo, mice; details: COLO 205, Colon; oral 15 mg/kg b.i.d. 2 consecutive days per week or 3 mg/kg b.i.d. every day, 3 weeks
# Procedure: as §1
# [3] = system: MDR tumor cell lines expressing either P-gp or BCRP; assay: p-histone H3 / polyploidy in MDR tumor cell lines (summary); format: cell-based; details: Homo sapiens; all cell lines tested irrespective of P-gp or BCRP status; read-out: IC50 or EC50 values (p-histone H3 inhibition or polyploidy)
# Procedure: All high-content cell assays were performed on an ArrayScan VTi HCS Reader (Cellomics). Tumor cell lines were treated with AMG 900, AZD1152, MK-0457, or PHA-739358 (concentration range varied based on potency). The cells were prepared for intracellular staining with an anti-p-histone H3 Ser^10 antibody as previously described (1). Detection was performed with an anti-rabbit IgG-alexa-568 antibody and DAPI. The cellular levels of p-histone H3 were analyzed using Target Activation V2 algorithm (Cellomics) to determine the percentage of positive cells. For the imaging assays, the concentration-response curves and corresponding IC50 and EC50 values were calculated using the percentage of cells affected versus the DMSO control.
# Tumor cells were treated with AMG 900, AZD1152, MK-0457, or PHA-739358 (range concentration varied based on potency) for 24 hours and processed for cell-cycle analysis (DNA staining only) as previously described (1). Cells were analyzed on a LSRII flow cytometer using BD FACS Diva software. The concentration-response curves and corresponding EC50 values were calculated using the percentage of cells with ≧4N DNA content versus the DMSO control.
# [4] = system: 32 human tumor cell lines; assay: Antiproliferative effect across tumor cell line panel (summary); format: cell-based; details: across solid and hematologic tumor cell lines (Tables 1 and 2)
# Procedure: Tumor cells were seeded in a Packard View 96-well plate in 100 μL of appropriate complete media at a density of 3000 or 5000 cells/well depending on the cell line growth kinetics (broadly defined as slow vs. fast). All dilutions were performed using Biomek FX workstation. The next day cells were treated with AMG 900 (11-point dose range 0.156 to 0.0003 μM) with a final DMSO concentration of 0.12% in media. After 24 hours, the media containing compound was removed and the cells were washed with complete media. The cells were then incubated in 100 μL of fresh complete media (without compound) for 48 hours. After 48 hours, the cells were fixed by adding 100 μL of fixation buffer to 100 μL of complete media. […] Quantification of individual cell nuclear area and intensity was performed based on Hoechst 33342 DNA dye fluorescence. A threshold on the nuclear area based on the DMSO-treated control well was set to quantify the number of normal size nuclei from nuclear debris and polyploidy cells. […] The dose-concentration curves and EC50 values were calculated using a 4-parameter equation.
# Tumor cells were seeded in a 300 μL deep 96-well plate in 150 μL of appropriate complete media at a density of 100,000 cells/well. […] Data was acquired and analyzed by flow cytometer (LSRII). […] The concentration-response curves and EC50 values were calculated using a 4-parameter equation.
smiles,measurement,setting,value
"Cc1csc(-c2nnc(Nc3ccc(Oc4ncccc4-c4ccnc(N)n4)cc3)c3ccccc23)c1 [AMG 900, N-(4-((3-(2-amino-4-pyrimidinyl)-2-pyridinyl)oxy)phenyl)-4-(4-methyl-2-thienyl)-1-phthalazinamine]",concentrations inhibiting colony formation,HCT116 parental,≥ 5 nmol/L
same,Maximum TGI (%),[1],66% and 65** %
same,Maximum TGI (%),[2],84%
same,Maximum TGI (%),MES-SA xenograft,87** %
same,Maximum TGI (%),COLO 205 xenograft,73* %
same,IC50,[3],2 to 3 nM
same,EC50,[4],1 to 5 nM
